# How the values were obtained:
# [1] = Pharmacokinetic evaluation in beagle dogs after oral dosing of neat solid in gelatin capsule; format: in vivo; settings: oral dosing of the crystalline solid
# Description: A study was conducted to compare the pharmacokinetic profiles of Compound 1 and Cocrystal 2. Compound 1 and Cocrystal 2 were administered as neat solids to six male beagle dogs in a crossover study with a two-week washout period between treatments. Each dog was dosed with either Compound 1 or Cocrystal 2 in a gelatin capsule after an overnight fast. All research involving animal subjects adhered to the “Principles of Laboratory Animal Care” (NIH publication #85-23). Dose levels of 5 mg/kg and 50 mg/kg were each evaluated. Each dog received one size #2 capsule for the 5 mg/kg dose. Dosing at 50 mg/kg required use of two size #00 capsules for each dog. Blood samples were collected at intervals for 36 hours post-dose. Non-compartmental pharmacokinetic metrics were determined using WinNonlin v. 1.5 (Scientific Consulting, Inc., Mountain View, Calif.). The area under the plasma concentration-time curve (AUC) was estimated by application of the linear trapezoidal rule. Statistical analyses were conducted using Microsoft Excel 2000; statistical significance was considered when p<0.05.
# [2] = Solubility in aqueous systems; format: physicochemical
# Excerpt: Five cocrystals of 2-4-(4-chloro-2-fluorophenoxy)phenyl]pyrimidine-4-carboxamide (Compound 1) were identified by using techniques of the disclosure. […] Although the permeability of Compound 1 could not be measured in Caco-2 cells because of its inherently low solubility, Compound 1 is suspected to be a Class II compound (low solubility and high permeability) as described in the biopharmaceutical drug classification scheme (BCS) (Amidon, Gordon L., Lennernaes, Hans, Shah, Vinod P. and Crison, John R. (1995) “A theoretical basis for a biopharmaceutic drug classification: the correlation of in vitro drug product dissolution and in vivo bioavailability” Pharmaceutical Research […], 12(3), 4 13-20). The calculated octanol/water partition coefficient (clogP) for Compound 1 is 2.9, supporting this suspicion (Yazdanian, Mehran, Glynn, Susan L., Wright, James L., and Hawi, Amale. (1998) “Correlating partitioning and Caco-2 cell permeability of structurally diverse small molecular weight compounds” Pharmaceutical Research 1998 15(9), 1490-1494). […] Cocrystallization techniques were used as a tool to improve the pharmaceutical properties of Compound 1.
# [3] = Intrinsic dissolution studies; format: physicochemical; settings: crystalline solid
# Description: Intrinsic dissolution measurements were performed using a fiber optic probe (Delphian® type 11A fiber optic workstation, baseline correction mode with sample wavelength maximum of 279 nm and baseline wavelength of 350 nm) at 37° C. and 100 rpm in a USP apparatus II dissolution vessel (Vankel VK7010) containing 500 mL of pure water. Disks 0.8 cm diameter were compressed using 70 mg of solid in stainless steel dies (Vankel Woods apparatus) at 1000 lbs for 60 seconds with a Carver Press. Dissolution studies for cocrystal 2 lasted 90 minutes, after which time the disks were recovered, carefully ground and checked by XRPD for the presence of cocrystal. Due to the low solubility of Compound 1, dissolution studies were run over 24 hours in order to get a measurable rate.
smiles,measurement,setting,value
NC(=O)c1ccnc(-c2ccc(Oc3ccc(Cl)cc3F)cc2)n1 [Compound 1],in-vivo plasma concentrations,[1],low
same,solubility in aqueous systems,[2],< 0.1 µg/mL
same,in-vitro dissolution,[3],low

# Reference: patent publication US20070088508A1, “Cocrystallization methods” (priority 2005, published 2007)
